The source of these data is PubChem BioAssay AID1259408 (Genetic Toxicology Data Bank (GENE-TOX), 2018).

The structures appear in SMILES notation. Activity calls are given as the source filed them. How the calls were made is not given here.

The test system of this series is GENE-TOX genotoxicity assays, various organisms and cells. Description: GENE-TOX mutagenicity studies. As to conditions: for call: Assay Type: In vivo carcinogenicity studies.
Setting [1] is: Species/Cell Type: Rodents, Sex: Male, Assay Type: Dominant lethal test, Assay Code: DLT-, Evaluation Type: Evaluation A (Pre-1980).
Setting [2] is: Species/Cell Type: Salmonella typhimurium (one or more of the five standard strains: TA98, TA100, TA1535, TA1537, and TA1538), Assay Type: Histidine reverse gene mutation, Ames assay, Assay Code: SALT, Evaluation Type: Evaluation A (Pre-1980).
Where [3] appears, read: Species/Cell Type: Bacillus subtilis (H17 vs M45), Assay Type: Rec-assay, spot test, DNA effects (bacterial DNA repair), Assay Code: REWT, Evaluation Type: Evaluation A (Pre-1980).
Where [4] appears, read: Species/Cell Type: Mammalian polychromatic erythrocytes, Assay Type: Micronucleus test, chromosome aberrations, Assay Code: MNTT, Evaluation Type: Evaluation B (Post-1980).
Setting [5] is: Species/Cell Type: Drosophila melanogaster, Assay Type: Sex-linked recessive lethal gene mutation, Assay Code: SRLT, Evaluation Type: Evaluation A (Pre-1980).
[6] abbreviates: Species/Cell Type: Escherichia coli WP2 UVRA, Assay Type: Tryptophan reverse gene mutation, Assay Code: WPU-*, Activation: With metabolic activation, Evaluation Type: Evaluation A (Pre-1980).
Setting [7] is: Species/Cell Type: Escherichia coli polA (W3119 vs P3478), Assay Type: Rec-assay, DNA effects (bacterial DNA repair), Assay Code: RE1T, Evaluation Type: Evaluation A (Pre-1980).
[8] abbreviates: Species/Cell Type: Hordeum vulgare (barley), Assay Type: Chromosome aberrations, Assay Code: HOC+, Evaluation Type: Evaluation A (Pre-1980).
The mark [9] stands for this setting: Species/Cell Type: Salmonella typhimurium (one or more of the five standard strains: TA98, TA100, TA1535, TA1537, and TA1538), Assay Type: Histidine reverse gene mutation, Ames assay, Assay Code: SAL-, Evaluation Type: Evaluation A (Pre-1980).
Setting [10] is: Species/Cell Type: Salmonella typhimurium (one or more of the five standard strains: TA98, TA100, TA1535, TA1537, and TA1538), Assay Type: Histidine reverse gene mutation, Ames assay, Assay Code: SAL+*, Activation: With metabolic activation, Evaluation Type: Evaluation A (Pre-1980).

Regarding `OCC(O)CCl` (configuration not stated), the mutagenic call is, setting by setting: (Species/Cell Type: Rat, Sex: Male, Assay Type: Sperm morphology, Assay Code: SPAT, Evaluation Type: Evaluation A (Pre-1980)) “no conclusion”; under setting [1], “inactive; negative”.

For `CN1CCC(=C2c3ccccc3C3OC3c3ccccc32)CC1` (configuration not stated), the mutagenic call under setting [2] was “no conclusion”.

On to `c1nncnn1`, for which the mutagenic call under setting [3] is recorded as “no conclusion”.

Consider `CC(C)NCC(O)COc1cccc2[nH]ccc12` (configuration not stated), for which the mutagenic call under setting [4] is “no conclusion”.

Turning to `O=c1[nH]cc[nH]1`, the mutagenic call under setting [5] is “no conclusion”.

For the molecule `CN(C)C(=O)Nc1ccc(Cl)cc1`, the mutagenic call was “no conclusion” under setting [3]; “no conclusion” under setting [5]; “inactive; negative” under setting [6]; “no conclusion” under setting [7]; “active; positive” under setting [8]; “inactive; negative” (Species/Cell Type: Human diploid fibroblasts, Assay Type: Unscheduled DNA synthesis (UDS) in vitro, DNA effects, Assay Code: UDH-, Evaluation Type: Evaluation A (Pre-1980)). For the same molecule, the mutagenic call (Species/Cell Type: Saccharomyces cerevisiae, Assay Type: Mitotic recombination or gene conversion, Assay Code: YEH-, Evaluation Type: Evaluation A (Pre-1980)) is “inactive; negative”. In addition, the call (Species/Cell Type: Nonhuman, Assay Code: CCG+L, Evaluation Type: Evaluation A (Pre-1980)) is “active; positive”.

As for `Oc1ccc2cccnc2c1`, the mutagenic call under setting [9] was “inactive; negative”.

On to `CC1CN1P(=O)(N1CC1C)N1CC1C` (configuration not stated), for which the mutagenic call reads like this: (Species/Cell Type: Drosophila melanogaster, Assay Type: Sex-linked recessive lethal gene mutation, Assay Code: SRL+, Evaluation Type: Evaluation A (Pre-1980)) “active; positive”; (Species/Cell Type: F1 mouse, Sex: Male, Assay Type: Sperm morphology, Assay Code: SPFT, Evaluation Type: Evaluation A (Pre-1980)) “no conclusion”; under setting [8], “active; positive”; (Species/Cell Type: Mammalian polychromatic erythrocytes, Assay Type: Micronucleus test, chromosome aberrations, Assay Code: MNT+, Evaluation Type: Evaluation A (Pre-1980)) “active; positive”; (Species/Cell Type: Mouse, Sex: Male, Assay Type: Sperm morphology, Assay Code: SPI+, Evaluation Type: Evaluation A (Pre-1980)) “active; positive”; (Species/Cell Type: Neurospora crassa, Assay Type: Forward gene mutation, Assay Code: NEF+, Evaluation Type: Evaluation A (Pre-1980)) “active; positive”. The mutagenic call runs as follows: (Species/Cell Type: Nonhuman bone marrow, Assay Type: Chromosome aberrations, in vivo, Assay Code: CY#+, Evaluation Type: Evaluation A (Pre-1980)) “active; positive”; (Species/Cell Type: Rodents, Sex: Male, Assay Type: Dominant lethal test, Assay Code: DLT+, Evaluation Type: Evaluation A (Pre-1980)) “active; positive”; (Species/Cell Type: Vicia faba, Assay Type: Chromosome aberrations, Assay Code: VIC+D, Dose Response: With dose response, Evaluation Type: Evaluation A (Pre-1980)) “active; positive”. Further, the call (Species/Cell Type: Nonhuman, Assay Code: CCGT, Evaluation Type: Evaluation A (Pre-1980)) is given as “no conclusion”.

`CN=c1ccc2cc3ccc(NC)cc3oc-2c1`: the mutagenic call under setting [5] is “no conclusion”.

For the molecule `O=S(O)O`, the mutagenic call under setting [6] is “inactive; negative”; the mutagenic call (Species/Cell Type: Mouse, Sex: Male, Assay Type: Heritable translocation test, chromosome aberrations, Assay Code: HTT-, Evaluation Type: Evaluation A (Pre-1980)) is “inactive; negative”; the mutagenic call (Species/Cell Type: Mouse, Sex: Male, Assay Type: Specific locus test, gene mutation, Assay Code: SLT-, Evaluation Type: Evaluation A (Pre-1980)) is “inactive; negative”; the mutagenic call (Species/Cell Type: Nonhuman, Assay Type: Sister-chromatid exchange (SCE) in vitro, Assay Code: SC2+D, Dose Response: With dose response, Evaluation Type: Evaluation B (Post-1980)) is “active; positive”; the mutagenic call under setting [1] was “inactive; negative”; the mutagenic call (Species/Cell Type: Saccharomyces cerevisiae, Assay Type: Reverse gene mutation, Assay Code: YER+, Evaluation Type: Evaluation A (Pre-1980)) was “active; positive”.

In the case of `COP(=S)(OC)Oc1cc(Cl)c(Cl)cc1Cl`, the mutagenic call (Species/Cell Type: Human, Assay Type: Sister-chromatid exchange (SCE) in vitro, Assay Code: SC1+D, Dose Response: With dose response, Evaluation Type: Evaluation B (Post-1980)) was “active; positive”.

Regarding `O=C(O)/C=C/c1ccc(O)c(O)c1`, under setting [4], the mutagenic call is “no conclusion”.

`O=c1c2ccccc2sc2c(CO)ccc(NCCN3CCCCC3)c12`: where the note is “Species/Cell Type: Mouse lymphoma (L5178Y) cells, Assay Type: Forward gene mutation at the thymidine kinase (TK) locus, chromosome aberrations, Assay Code: L51+, Evaluation Type: Evaluation A (Pre-1980)”, the mutagenic call is “active; positive”.

As for `O=Nc1c(O)c(S(=O)(=O)O)cc2cc(S(=O)(=O)O)ccc12`, the mutagenic call (Species/Cell Type: Glycine max (soybean), Assay Type: Gene mutation, Assay Code: GLM-, Evaluation Type: Evaluation A (Pre-1980)) was “inactive; negative”.

For `COc1ccccc1[N+](=O)[O-]`, under setting [2], the mutagenic call is on record as “no conclusion”.

Regarding `O=c1c(=O)c2cc3ccccc3c3ccc4cccc1c4c23`, the mutagenic call is “inactive; negative” (Species/Cell Type: Chinese hamster lung (V79) cells, Assay Type: Forward gene mutation at the HPRT or ouabain locus, Assay Code: V79-, Evaluation Type: Evaluation A (Pre-1980)) and “no conclusion” under setting [2].

As to `Cc1cc2nc3ccc(N(C)C)cc3nc2cc1N`, the mutagenic call runs as follows: under setting [5], “no conclusion”; under setting [7], “no conclusion”; (Species/Cell Type: Neurospora crassa, Assay Type: Aneuploidy, chromosome aberrations, Assay Code: NEN-, Evaluation Type: Evaluation A (Pre-1980)) “inactive; negative”; under setting [10], “active; positive”.

Consider `C(=C\c1ccccc1)/c1ccccc1`, for which the mutagenic call under setting [9] was “inactive; negative”.

Take `Nc1ccc(S(=O)(=O)Nc2nccs2)cc1`: where the note is “Species/Cell Type: Arabidopsis species, Assay Type: Gene mutation, Assay Code: ARM-, Evaluation Type: Evaluation A (Pre-1980)”, the mutagenic call was “inactive; negative”.

`COC(=O)[C@@]12Oc3ccc(-c4ccc5c(c4O)C(O)=C4C(=O)C[C@H](C)[C@@H](O)[C@]4(C(=O)OC)O5)c(O)c3C(O)=C1C(=O)C[C@H](C)[C@H]2O`: the mutagenic call under setting [2] is recorded as “no conclusion”.

In the case of `Cc1c2ccccc2c(C)c2ccccc12`, the mutagenic call is, setting by setting: (Species/Cell Type: Mammalian polychromatic erythrocytes, Assay Type: Micronucleus test, chromosome aberrations, Assay Code: MNTT, Evaluation Type: Evaluation A (Pre-1980)) “no conclusion”; (Species/Cell Type: Mouse, Sex: Male, Assay Type: Sperm morphology, Assay Code: SPI-, Evaluation Type: Evaluation A (Pre-1980)) “inactive; negative”; (Species/Cell Type: Nonhuman, Assay Type: Sister-chromatid exchange (SCE) in vitro, Assay Code: SC2+, Evaluation Type: Evaluation B (Post-1980)) “active; positive”; under setting [10], “active; positive”.

Regarding `CCC(COS(C)(=O)=O)(COS(C)(=O)=O)COS(C)(=O)=O`, the mutagenic call (Species/Cell Type: Arabidopsis species, Assay Type: Gene mutation, Assay Code: ARM+, Evaluation Type: Evaluation A (Pre-1980)) was “active; positive”.

`CC1CC2OC(/C=C/C=C/C=C/C=C/C=C/C(O)=C3\C(=O)C(C(C)C)N(C)C3=O)C(O)C2O1` (configuration not stated): the mutagenic call (Species/Cell Type: Bacillus subtilis (H17 vs M45), Assay Type: Rec-assay, spot test, DNA effects (bacterial DNA repair), Assay Code: REW-, Evaluation Type: Evaluation A (Pre-1980)) was “inactive; negative”.

Regarding `C=C(C)c1ccccc1`, the mutagenic call reads like this: (Species/Cell Type: Human lymphocytes, Assay Type: Sister-chromatid exchange (SCE) in vitro, Assay Code: SCL+, Evaluation Type: Evaluation B (Post-1980)) “active; positive”; (Species/Cell Type: Human, Assay Type: Sister-chromatid exchange (SCE) in vitro, Assay Code: SC1+, Evaluation Type: Evaluation B (Post-1980)) “active; positive”.

For the molecule `CC(C)(C)I`, where the note is “Species/Cell Type: Escherichia coli polA (W3119 vs P3478), Assay Type: Rec-assay, DNA effects (bacterial DNA repair), Assay Code: RE1+, Evaluation Type: Evaluation A (Pre-1980)”, the mutagenic call was “active; positive”.

Turning to `c1cc2ccc3cc4cccc5ccc6cc(c1)c2c3c6c54`, the mutagenic call under setting [10] is “active; positive”.

As for `CC(C)CN(N=O)C(N)=O`, for the setting “Species/Cell Type: Arabidopsis species, Assay Type: Gene mutation, Assay Code: ARM+D, Dose Response: With dose response, Evaluation Type: Evaluation A (Pre-1980)”, the mutagenic call is “active; positive”.
